Results: the supplement of paper PMC11208160

Assay: recombinant UMI read abundance after kanamycin selection (control-corrected) (log10(CPM+1)); higher = more efficient recombination; extreme values may be limits of the assay; sequences stand for … in AGTGCAGAGAAAATCGGCCAGTTTTCTCTGCCTGCAGTCCGCATGCCGTGGGACCCCTTGGGTTCTAACCTGTTGCCTAGATTTATGCAGCGGACTGCCTTTCTCCCAAAGTGATAAACCGG…AGGTTGGTTTCACT; site = the 11-nt donor
Outline: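 The measure is log10(CPM+1) for recombinant UMIs. These were PCR-amplified across the donor–target junction and sequenced after Escherichia coli carrying a donor and donor-binding-loop pair library and a target plasmid with T7-inducible IS621 bridge recombinase was plated on IPTG (0.07 mM) plus kanamycin or unselected. CPM were averaged over two replicates and scaled by control-derived factors.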
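Further: IS621 bridge recombinase in Escherichia coli cells against a fixed T5 target plasmid.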

In order of rising “recombinant UMI read abundance (log10)” value:
1. GAAGATGCATGGACCGGTTTTCCCGGTAATCCGTATTTGTT (site GAAGATTCTAA)  0
2. GAAGATTCATGGACCGGTTTTCCCGGTAATCCGTATTTGGT (site GAAGATTCTAG)  0
3. GAAGATTCATGGACCGGTTTTCCCGGTAATCCGTATTTGTA (site GAAGATTCTGA)  0
4. GAAGGTACATGGACCGGTTTTCCCGGTAATCCGTATTTGAC (site GCAGGTACTGT)  0
5. GAAGGTACATGGACCGGTTTTCCCGGTAATCCGTATTTGAC (site GGAGGTACTGT)  0
6. GAATAGCCATGGACCGGTTTTCCCGGTAATCCGTATTTGCA (site GAATCGCCTTG)  0
7. GAATAGCCATGGACCGGTTTTCCCGGTAATCCGTATTTGCA (site GAATTGCCTTG)  0
8. GAATGGCCATGGACCGGTTTTCCCGGTAATCCGTATTTGCC (site GAATGGCCTAG)  0
9. GAATGGCCATGGACCGGTTTTCCCGGTAATCCGTATTTGCC (site GAATGGCCTGG)  0
10. GAATGGCCATGGACCGGTTTTCCCGGTAATCCGTATTTGCC (site GAATGGCCTTG)  0
11. GAATGGCCATGGACCGGTTTTCCCGGTAATCCGTATTTGCG (site GAATGGCCTAG)  0
12. GAATGGCCATGGACCGGTTTTCCCGGTAATCCGTATTTGCG (site GAATGGCCTGG)  0
13. GAATGGCCATGGACCGGTTTTCCCGGTAATCCGTATTTGCG (site GAATGGCCTTG)  0
14. GAATGGCCATGGACCGGTTTTCCCGGTAATCCGTATTTGGA (site GAATGGCCTTA)  0
15. GAATGGCCATGGACCGGTTTTCCCGGTAATCCGTATTTGGA (site GAATGGCCTTG)  0
16. GACAAACCATGGACCGGTTTTCCCGGTAATCCGTATTTGCT (site GACAAACCTAC)  0
17. GACAAACCATGGACCGGTTTTCCCGGTAATCCGTATTTGCT (site GACAAACCTAG)  0
18. GACAAACCATGGACCGGTTTTCCCGGTAATCCGTATTTGCT (site GACAAACCTAT)  0
19. GACAAACCATGGACCGGTTTTCCCGGTAATCCGTATTTGGA (site GACAAACCTCC)  0
20. GACAAACCATGGACCGGTTTTCCCGGTAATCCGTATTTGGA (site GACAAACCTGC)  0
21. GACAAACCATGGACCGGTTTTCCCGGTAATCCGTATTTGGA (site GACAAACCTTC)  0
22. GACAAACCATGGACCGGTTTTCCCGGTAATCCGTATTTGTT (site GACAAACCTAA)  0
23. GACAAACCATGGACCGGTTTTCCCGGTAATCCGTATTTGTT (site GACAAACCTAC)  0
24. GACAAACCATGGACCGGTTTTCCCGGTAATCCGTATTTGTT (site GACAAACCTAG)  0
25. GACAAACCATGGACCGGTTTTCCCGGTAATCCGTATTTGTT (site GACAAACCTAT)  0
26. GACACACCATGGACCGGTTTTCCCGGTAATCCGTATTTGGT (site GACAAACCTAC)  0
27. GACACACCATGGACCGGTTTTCCCGGTAATCCGTATTTGGT (site GACAGACCTAC)  0.00253
28. GACACACCATGGACCGGTTTTCCCGGTAATCCGTATTTGGT (site GACACACCTAC)  0.00264
29. GACACACCATGGACCGGTTTTCCCGGTAATCCGTATTTGGT (site GACATACCTAC)  0.00315
30. GAAGCGCCATGGACCGGTTTTCCCGGTAATCCGTATTTGTG (site AAAGCGCCTCA)  0.00334
31. GAAGCGCCATGGACCGGTTTTCCCGGTAATCCGTATTTGTG (site CAAGCGCCTCA)  0.00406
32. GAATGGCCATGGACCGGTTTTCCCGGTAATCCGTATTTGTA (site GAATGGCCTTG)  0.00609
33. GACAAACCATGGACCGGTTTTCCCGGTAATCCGTATTTGCT (site GACAAACCTAA)  0.00711
34. GAAGCGCCATGGACCGGTTTTCCCGGTAATCCGTATTTGTG (site TAAGCGCCTCA)  0.00772
35. GAATGGCCATGGACCGGTTTTCCCGGTAATCCGTATTTGGA (site GAATGGCCTTC)  0.00798
36. GAATGGCCATGGACCGGTTTTCCCGGTAATCCGTATTTGTA (site GAATGGCCTTC)  0.0097
37. GAATGGCCATGGACCGGTTTTCCCGGTAATCCGTATTTGCC (site GAATGGCCTCG)  0.0106
38. GAATGAGCATGGACCGGTTTTCCCGGTAATCCGTATTTGGG (site AAATGAGCTCC)  0.0126
39. GAATGGCCATGGACCGGTTTTCCCGGTAATCCGTATTTGGA (site GAATGGCCTTT)  0.0129
40. GAAGGGCCATGGACCGGTTTTCCCGGTAATCCGTATTTGTG (site GAAGGGCCTCA)  0.0149
41. GAATGGCCATGGACCGGTTTTCCCGGTAATCCGTATTTGCG (site GAATGGCCTCG)  0.0153
42. GAATGGCCATGGACCGGTTTTCCCGGTAATCCGTATTTGTA (site GAATGGCCTTT)  0.0207
43. GAATGAGCATGGACCGGTTTTCCCGGTAATCCGTATTTGGG (site CAATGAGCTCC)  0.0211
44. GACAAACCATGGACCGGTTTTCCCGGTAATCCGTATTTGGA (site GACAAACCTAC)  0.0269
45. GAATAGCCATGGACCGGTTTTCCCGGTAATCCGTATTTGCA (site GAATGGCCTTG)  0.0428
46. GAAGTGGCATGGACCGGTTTTCCCGGTAATCCGTATTTGGT (site GGAGTGGCTAC)  0.113
47. GAAGCGCCATGGACCGGTTTTCCCGGTAATCCGTATTTGTG (site GAAGCGCCTCA)  0.139
48. GAATGGCCATGGACCGGTTTTCCCGGTAATCCGTATTTGTA (site GAATGGCCTTA)  0.142
49. GAAGTGGCATGGACCGGTTTTCCCGGTAATCCGTATTTGGT (site GCAGTGGCTAC)  0.177
50. GAATGAGCATGGACCGGTTTTCCCGGTAATCCGTATTTGGG (site GAATGAGCTCC)  0.261
51. GAATGAGCATGGACCGGTTTTCCCGGTAATCCGTATTTGGG (site TAATGAGCTCC)  0.317
52. GAAGATTCATGGACCGGTTTTCCCGGTAATCCGTATTTGTA (site GAAGATTCTAA)  0.349
53. GAAGTGGCATGGACCGGTTTTCCCGGTAATCCGTATTTGGT (site GAAGTGGCTAC)  0.489
54. GAAGTGGCATGGACCGGTTTTCCCGGTAATCCGTATTTGGT (site GTAGTGGCTAC)  0.882
55. GAATAGCCATGGACCGGTTTTCCCGGTAATCCGTATTTGCA (site GAATAGCCTTG)  0.97
56. GAAGATTCATGGACCGGTTTTCCCGGTAATCCGTATTTGGT (site GAAGATTCTAA)  0.995
57. GAAGCAGCATGGACCGGTTTTCCCGGTAATCCGTATTTGCT (site CAAGCAGCTAG)  1.19
58. GAAGCAGCATGGACCGGTTTTCCCGGTAATCCGTATTTGCT (site AAAGCAGCTAG)  1.32
59. GAAGTCGCATGGACCGGTTTTCCCGGTAATCCGTATTTGGT (site GAAGTCGCTAC)  1.34
60. GAAGATTCATGGACCGGTTTTCCCGGTAATCCGTATTTGTA (site GAAGATTCTCA)  1.55
61. GAAGATTCATGGACCGGTTTTCCCGGTAATCCGTATTTGGT (site GAAGATTCTAT)  1.82
62. GAAGCAGCATGGACCGGTTTTCCCGGTAATCCGTATTTGCT (site TAAGCAGCTAG)  2.01
63. GAAGGTACATGGACCGGTTTTCCCGGTAATCCGTATTTGAC (site GTAGGTACTGT)  2.16
64. GAAGCAGCATGGACCGGTTTTCCCGGTAATCCGTATTTGCT (site GAAGCAGCTAG)  2.25
65. GAAGGTACATGGACCGGTTTTCCCGGTAATCCGTATTTGAC (site GAAGGTACTGT)  2.28
66. GAAGATTCATGGACCGGTTTTCCCGGTAATCCGTATTTGTA (site GAAGATTCTTA)  2.5
67. GAAGATTCATGGACCGGTTTTCCCGGTAATCCGTATTTGGT (site GAAGATTCTAC)  3.05
68. GAAGTGTCATGGACCGGTTTTCCCGGTAATCCGTATTTGAA (site GAAGTGTCTTT)  3.13
